The subject of experiment [1] is phenylephrine contracted canine carotid artery ring preparation. The experiment in a line: Contraction force and vasorelaxation in phenylephrine contracted canine carotid artery ring preparation. To be noted: for contraction after Lzm-S relative to the value pre-Lzm-S treatment: non-L-NMMA treated group (n=12), human Lzm-S 6.7×10^−7 mol/L; for contraction after Lzm-S relative to the pre-Lzm-S contraction: non-indomethacin treated group (n=4).

Experiment [2] deals with Lzm-S-induced carotid artery vasodilation. The experiment in a line: Prevention of Lzm-S-induced vasodilation by pretreatment agents in the carotid artery ring preparation. More on the design: species or system canine. To be noted: for contraction after Lzm-S relative to the post-indomethacin plateau: indomethacin 10^−6 mol/L treated group (n=5); for blockade of Lzm-S-induced vasodilation: comparison of hydroxyl radical scavengers with peroxidase.

Setting [3] is: pretreatment with the agent, human Lzm-S 6.7×10^−7 mol/L, phenylephrine contracted ring.

“Also recorded” adds a separate entry of the source. Like-named read-outs stand apart in the source and are kept apart here.

Take `COc1ccc2c(c1)c(CC(=O)O)c(C)n2C(=O)c1ccc(Cl)cc1` [indomethacin]: the “force over 30 minutes when indomethacin was added” value in experiment [1] (indomethacin 10^−6 mol/L after phenylephrine, before Lzm-S) is listed as 5.6±0.5 grams. The entries for the “contraction after Lzm-S relative to the post-indomethacin plateau” value in experiment [2] (5 minutes), in experiment [2] (15 minutes) and in experiment [2] (30 minutes) were 79±11%, 57±24% and 39±25%, respectively. Also, the “inhibition of Lzm-S-induced vasodilation (words)” value (“inhibition” for short) in experiment [2] (setting [3]) is reported as “did not Prevent Vasodilation”.

For `Nc1ccncc1` [4-aminopyridine], the “inhibition” value in experiment [2] (setting [3]) is listed as “none of these inhibitors prevented Lzm-S's vasodilatory response”.

`Nc1ncnc2c1ncn2C1CCCO1` (centres unmarked) [SQ 22, 536]: the “inhibition” value in experiment [2] (setting [3]) is given as “none of these inhibitors prevented Lzm-S's vasodilatory response”.

For the molecule `CC(=O)N[C@H]1[C@H](O[C@H]2[C@H](O)[C@@H](NC(C)=O)C(O)O[C@@H]2CO)O[C@H](CO)[C@@H](O)[C@@H]1O` (some centres unmarked) [chitobiose, N,N′-diacetylchitobiose], in experiment [2] (setting [3]), the “inhibition” value is reported as “did not block Lzm-S's vasodilatory response”.

In the case of `Oc1ccc(O)cc1` [hydroquinone], in experiment [2], the “blockade of Lzm-S-induced vasodilation” value is recorded as 60%. Besides, the “inhibition” value was “inhibited the vasodilatory effect of lysozyme” in experiment [2] (setting [3]) and “inhibitory effect” in experiment [2] (pretreatment with the agent, human Lzm-S 6.7×10^−7 mol/L, phenylephrine contracted ring, listed as hydroxyquinone).

Consider `O=C1O[C@H]([C@@H](O)CO)C(O)=C1O` [ascorbic acid], for which the “inhibition” value in experiment [2] (setting [3]) was “neither DECTA (10^−2 mol/L), deferoxamine methanesulfonate salt (10^−2 mol/L), nor the reducing agents N-acetylcysteine (10^−3 mol/L), ascorbic acid (10^−4 mol/L), and reduced-glutathione (10^−3 mol/L) were found to inhibit Lzm-S-induced vasodilation”.

On to “guanosine 3′,5′-cyclic monophosphorothioate, β-phenyl-1,N^2-etheno-8-bromo-Rp-isomer, sodium salt [PKG inhibitor]”, for which the “inhibition” value is “prevented lysozyme induced vasdodilation” in experiment [2] (pretreatment with the agent, human Lzm-S 6.7×10^−7 mol/L, phenylephrine contracted ring, listed as protein kinase G inhibitor, sodium salt) and “found to inhibit Lzm-S's effect” in experiment [2] (pretreatment with the agent, human Lzm-S 6.7×10^−7 mol/L, phenylephrine contracted ring, sodium salt).

For `N[C@@H](CCC(=O)N[C@@H](CS)C(=O)NCC(=O)O)C(=O)O` [reduced-glutathione, reduced glutathione], in experiment [2] (setting [3]), the “inhibition” value was “neither DECTA (10^−2 mol/L), deferoxamine methanesulfonate salt (10^−2 mol/L), nor the reducing agents N-acetylcysteine (10^−3 mol/L), ascorbic acid (10^−4 mol/L), and reduced-glutathione (10^−3 mol/L) were found to inhibit Lzm-S-induced vasodilation”.

Turning to `CC(=O)N[C@H]1[C@H](O[C@H]2[C@H](O)[C@@H](NC(C)=O)C(O)O[C@@H]2CO)O[C@H](CO)[C@@H](O[C@@H]2O[C@H](CO)[C@@H](O)[C@H](O)[C@H]2NC(C)=O)[C@@H]1O` (some centres unmarked) [chitotriose, N,N′,N″-triacetylchitotriose], the “inhibition” value in experiment [2] (setting [3]) is given as “did not block Lzm-S's vasodilatory response”.

As to `CCN(CC)C(=S)S` [DECTA, diethyldithiocarbamic acid], the “inhibition” value in experiment [2] (setting [3]) is “neither DECTA (10^−2 mol/L), deferoxamine methanesulfonate salt (10^−2 mol/L), nor the reducing agents N-acetylcysteine (10^−3 mol/L), ascorbic acid (10^−4 mol/L), and reduced-glutathione (10^−3 mol/L) were found to inhibit Lzm-S-induced vasodilation”.

For “iberiotoxin: used for inhibition of potassium channels (QFTDVDCSVSKECWSVCKDLFGVDRGKCMGKKCRCYQ; Iberiotoxin; UniProt P24663 1-37, looked up)”, the “inhibition” value in experiment [2] (setting [3]) is “none of these inhibitors prevented Lzm-S's vasodilatory response”.

As to deferoxamine methanesulfonate salt, the “inhibition” value in experiment [2] (setting [3]) is “neither DECTA (10^−2 mol/L), deferoxamine methanesulfonate salt (10^−2 mol/L), nor the reducing agents N-acetylcysteine (10^−3 mol/L), ascorbic acid (10^−4 mol/L), and reduced-glutathione (10^−3 mol/L) were found to inhibit Lzm-S-induced vasodilation”.

On to `O=C(O)CCC/C=C\C/C=C\C/C=C\C/C=C\CCCCCO` [20-hydroxyeicosatetraenoic acid], for which, in experiment [2] (setting [3]), the “inhibition” value is “none of these inhibitors prevented Lzm-S's vasodilatory response”.

Turning to `CC(=O)N[C@@H](CS)C(=O)O` [N-acetylcysteine], the “inhibition” value in experiment [2] (setting [3]) is “neither DECTA (10^−2 mol/L), deferoxamine methanesulfonate salt (10^−2 mol/L), nor the reducing agents N-acetylcysteine (10^−3 mol/L), ascorbic acid (10^−4 mol/L), and reduced-glutathione (10^−3 mol/L) were found to inhibit Lzm-S-induced vasodilation”.

As for `[Cl-].[K+]` [KCl], the “inhibition” value in experiment [2] (setting [3]) is reported as “none of these inhibitors prevented Lzm-S's vasodilatory response”.

`CN(C)c1ccc2nc3ccc(=[N+](C)C)cc-3sc2c1` [methylene blue]: the “inhibition” value in experiment [2] (setting [3]) is “inhibited the effect of lysozyme; also recorded: prevented lysozyme induced vasdodilation; also recorded: found to inhibit Lzm-S's effect”.

In the case of `CC[N+](CC)(CC)CC` [tetraethylammonium], the “inhibition” value in experiment [2] was “none of these inhibitors prevented Lzm-S's vasodilatory response”.

`OC[C@@H](O)[C@@H](O)[C@H](O)[C@H](O)CO` [mannitol]: in experiment [2], the “blockade of Lzm-S-induced vasodilation” value turned out to be 60%. Also, the “inhibition” value in experiment [2] (setting [3]) is listed as “inhibited the vasodilatory effect of lysozyme; also recorded: inhibitory effect”.

Consider `CN(C)CCOC(c1ccccc1)c1ccccc1.Cl` [dipheniramine hydrochloride], for which the “inhibition” value in experiment [2] (setting [3]) is “none of these inhibitors prevented Lzm-S's vasodilatory response”.

With charybdotoxin, the “inhibition” value in experiment [2] (setting [3]) is given as “none of these inhibitors prevented Lzm-S's vasodilatory response”.

With `CC(C)NCC(O)COc1cccc2ccccc12` (centres unmarked) [propranolol], in experiment [2] (setting [3]), the “inhibition” value was “none of these inhibitors prevented Lzm-S's vasodilatory response”.

On to `O=C1C(Nc2ccccc2)=CC(=O)c2ncccc21` [LY 83583, 6-anilino-5,8-quinolinequinone], for which the “inhibition” value in experiment [2] (setting [3]) is recorded as “prevented lysozyme induced vasdodilation; also recorded: found to inhibit Lzm-S's effect”.

On to `CN1[C@@H]2CC[C@H]1C[C@@H](OC(=O)C(CO)c1ccccc1)C2` (some centres unmarked) [atropine], for which the “inhibition” value in experiment [2] (setting [3]) is “none of these inhibitors prevented Lzm-S's vasodilatory response”.

With `CNC[C@H](O)c1cccc(O)c1` [phenylephrine], the phenylephrine response in experiment [1] (endothelial denuded preparation) is 7.1±0.5 grams; in experiment [1] (endothelial intact preparation), 6.7±0.7 grams. This molecule also came in with a phenylephrine contraction alone in experiment [1] (ethanol treated control group, baseline before ethanol) of 8.2±2.6 grams. Also, in experiment [1] (indomethacin treated group), the “mean increase in contraction from resting force with phenylephrine” value is reported as 7.5±1.4 grams. For the same molecule, the “mean increase in force from resting tension with phenylephrine” value in experiment [1] (non-indomethacin time control group) amounted to 6.9±2.7 grams. Also, in experiment [1] (phenylephrine 10^−5 mol/L, L-NMMA treated group), the “mean increase in resting force caused by phenylephrine” value is 6.2±2.4 grams. Moreover, the “mean increase in contraction from resting force caused by phenylephrine” value in experiment [1] (phenylephrine 10^−5 mol/L, non-L-NMMA treated group) was 7.1±2.1 grams.

Turning to `O=c1onc2cnc3ccccc3n12` [ODQ, 1H-[1,2,4]oxadiazolo[4,3-a]quinoxalin-1-one], the “inhibition” value in experiment [2] (setting [3]) is given as “prevented lysozyme induced vasdodilation; also recorded: found to inhibit Lzm-S's effect”.

Take `OO` [H2O2, hydrogen peroxide]: the “effect of H2O2 on force” value in experiment [1] (10^−4 mol/L) is listed as “progressive vasorelaxation over time”; in experiment [1] (higher concentrations, 10^−3 to 10^−1 mol/L), “an initial increase in force that was followed by vasorelaxation; also recorded: vasoconstriction that was rapidly followed by vasodilation”; in experiment [1] (lower concentrations, FIG. 8) it was “vasorelaxation was produced”. Moreover, the “effect of H2O2 on precontracted force” value in experiment [1] (10^−5 mol/L) was “minimal effect”.

B1: human Lzm-S: Human lysozyme purchased from EMD Biosciences; used in all experiments after the initial ones (protein, UniProt P61626 19-148, looked up)
Lysozyme C: KVFERCELARTLKRLGMDGYRGISLANWMCLAKWESGYNTRATNYNAGDRSTDYGIFQINSRYWCNDGKTPGAVNACHLSCSALLQDNIADAVACAKRVVRDPQGIRAWVAWRNRCQNRDVRQYVQGCGV
For the molecule B1, the “vasorelaxation in the carotid artery preparation (mean values)” value in experiment [1] (FIG. 2 mean values) is “significant vasorelaxation”. The “contraction after Lzm-S, % of the phenylephrine plateau” value turned out to be 79±18% in experiment [1] (endothelium denuded preparation (n=4), 5 minutes); 58±21% in experiment [1] (endothelium denuded preparation (n=4), 15 minutes); 54±20% in experiment [1] (endothelium denuded preparation (n=4), 30 minutes); 64±25% in experiment [1] (endothelium intact preparation (n=4), 5 minutes); 53±33% in experiment [1] (endothelium intact preparation (n=4), 15 minutes); 76±21% in experiment [1] (endothelium intact preparation (n=4), 30 minutes). For the same molecule, the “constriction after lysozyme relative to the phenylephrine value” in experiment [1] (example traces FIG. 1, phenylephrine constricted carotid ring) is recorded as “about 40%”. Moreover, the “vasodilatory effect” value in experiment [1] (human Lzm-S 3.3×10^−7 mol/L) is listed as “minimal vasodilatory effect”. In experiment [1] (human Lzm-S higher concentration (6.7×10^−7 mol/L)), the “reduction in contraction” value is given as “nearly eliminated the increase in force induced by phenylephrine”. In addition, the “contraction after Lzm-S relative to the value pre-Lzm-S treatment” value in experiment [1] (5 minutes) is 23±24%; in experiment [1] (15 minutes) it was 8±27%; in experiment [1] (30 minutes), 2±34%. The “contraction after Lzm-S relative to the pre-Lzm-S contraction” value is 71±16% in experiment [1] (5 minutes), 45±19% in experiment [1] (15 minutes) and 19±15% in experiment [1] (30 minutes).

For the origin of these results see US20110014174A1, “Lysozyme, A Novel Vasodilator of Sepsis that can be inhibited by a Peroxidase and Hydroxyl Radical Scavengers” (UNIVERSITY OF MANITOBA, priority 2007, published 2011).
